Experimental data reported in US10294202B2, “Pyrrolidinones as herbicides” (FMC Corporation, priority 2013, dated 2019).

Columns and labels:
buckwheat, wild = experiment: Test D pre-/postemergence herbicide test; format: in vivo, Polygonum convolvulus; conditions: for Plant response rating, Buckwheat, Wild: scale 0 to 100 (0 no effect, 100 complete control); for Plant response rating: Buckwheat, Wild, scale 0 to 100
Procedure, shortened: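 Postemergence sprays were made on plants at the 1- to 4-leaf stage in peat-based medium, and preemergence sprays on seeds planted in silt loam. The formulation was a non-phytotoxic solvent mixture containing surfactant. Plants were compared with controls after 7 to 21 days and rated visually on a 0–100 scale.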

field poppy = experiment: Test D pre-/postemergence herbicide test; format: in vivo, Papaver rhoeas; conditions: for Plant response rating, Field Poppy: scale 0 to 100 (0 no effect, 100 complete control); for Plant response rating: Field Poppy, scale 0 to 100
Text: Seeds of plant species selected from bluegrass (annual bluegrass, Poa annua), blackgrass (Alopecurus myosuroides), canarygrass (littleseed canarygrass, Phalaris minor), chickweed (common chickweed, Stellaria media), galium (catchweed bedstraw, Galium aparine), bromegrass, downy (downy bromegrass, Bromus tectorum), field poppy (Papaver rhoeas), field violet (Viola arvensis), foxtail, green (green foxtail, Setaria viridis), deadnettle (henbit deadnettle, Lamium amplexicaule), ryegrass, Italian (Italian ryegrass, Lolium multiflorum), kochia (Kochia scoparia), lambsquarters (Chenopodium album), oilseed rape (Brassica napus), pigweed (Amaranthus retroflexus), chamomile (scentless chamomile, Matricaria inodora), Russian thistle (Salsola kali), speedwell (bird's-eye speedwell, Veronica persica), barley, spring (spring barley, Hordeum vulgare), wheat, spring (spring wheat, Triticum aestivum), buckwheat, wild (wild buckwheat, Polygonum convolvulus), mustard, wild (wild mustard, Sinapis arvensis), oat, wild (wild oat, Avena fatua), radish, wild (wild radish, Raphanus raphanistrum), […]), barley, winter (winter barley, Hordeum vulgare), and wheat, winter (winter wheat, Triticum aestivum) were planted into a silt loam soil and treated preemergence with test chemicals formulated in a non-phytotoxic solvent mixture which included a surfactant. At the same time, these species were planted in pots containing Redi-Earth® planting medium (Scotts Company, 14111 Scottslawn Road, Marysville, Ohio 43041) comprising spaghnum peat moss, vermiculite, wetting agent and starter nutrients and treated with postemergence applications of the test chemicals formulated in the same manner. Plants ranged in height from 2 to 18 cm (1- to 4-leaf stage). Treated plants and controls were maintained in a controlled growth environment for 7 to 21 days after which time all species were compared to controls and visually evaluated. Plant response ratings, summarized in Table D, are based on a scale of 0 to 100 where 0 is no effect and 100 is complete control. A dash (-) response means no test result.

sandbur = experiment: Test E preemergence herbicide test; format: in vivo, Cenchrus echinatus; set-up: key: 0 = no effect, 100 = complete control
Text: (§1) Seeds of plant species selected from corn (Zea mays), soybean (Glycine max), velvetleaf (Abutilon theophrasti), lambsquarters (Chenopodium album), wild poinsettia (Euphorbia heterophylla), pigweed, palmer (palmer pigweed, Amaranthus palmeri), waterhemp (common waterhemp, Amaranthus rudis), surinam grass (Brachiaria decumbens), crabgrass, large (large crabgrass, Digitaria sanguinalis), crabgrass, Brazil (Brazilian crabgrass, Digitaria horizontalis), panicum, fall (fall panicum, Panicum dichotomiflorum), foxtail, giant (giant foxtail, Setaria faberii), foxtail, green (green foxtail, Setaria viridis), goosegrass (Eleusine indica), johnsongrass (Sorghum halepense), ragweed (common ragweed, Ambrosia elatior), barnyardgrass (Echinochloa crus-galli), sandbur (southern sandbur, Cenchrus echinatus), arrowleaf […] rhombifolia), ryegrass, Italian (Italian ryegrass, Lolium multiflorum), dayflower, VA (Virginia dayflower, Commelina virginica), field bindweed (Convolvulus arvensis), morningglory (Ipomoea coccinea), nightshade (eastern black nightshade, Solanum ptycanthum), kochia (Kochia scoparia), nutsedge, yellow (yellow nutsedge, Cyperus esculentus), cocklebur (common cocklebur, Xanthium strumarium), smartweed (ladysthumb smartweed, Polygonum Persicaria) and beggarticks (hairy beggarticks, Bidens pilosa), were planted into a silt loam soil and treated preemergence with test chemicals formulated in a non-phytotoxic solvent mixture which included a surfactant. Treated plants and controls were maintained in a greenhouse for 21 days, after which time all species were compared to controls and visually evaluated. Plant response ratings, summarized in Table E, are based on a scale of 0 to 100 where 0 is no effect and 100 is complete control. A dash (-) response means no test result.

panicum, fall = experiment: Test E preemergence herbicide test; format: in vivo, Panicum dichotomiflorum; set-up: key: 0 = no effect, 100 = complete control
Text: as §1

wild poinsettia = experiment: Test E preemergence herbicide test; format: in vivo, Euphorbia heterophylla; set-up: key: 0 = no effect, 100 = complete control
Text: as §1

bermudagrass = experiment: Test C pre-/postemergence herbicide test; format: in vivo, Cynodon dactylon; conditions: Preemergence
Procedure, shortened: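 Response scores range from 0, meaning no effect, to 100, meaning complete control, assigned visually by comparison with controls roughly two weeks (13 to 15 days) after spraying. Applications were made preemergence to seeded loam–sand soil and postemergence to 1- to 4-leaf plants.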

Structure (SMILES)	Plant response rating, Buckwheat, Wild (buckwheat, wild; Preemergence, 62 g ai/ha)	Plant response rating, Buckwheat, Wild (buckwheat, wild; Preemergence, 125 g ai/ha)	Plant response rating, Buckwheat, Wild (buckwheat, wild; Preemergence, 31 g ai/ha)	Plant response rating (buckwheat, wild; Preemergence, 250 g ai/ha)	Plant response rating, Field Poppy (field poppy; Preemergence, 62 g ai/ha)	Plant response rating, Field Poppy (field poppy; Preemergence, 125 g ai/ha)	Plant response rating, Field Poppy (field poppy; Preemergence, 31 g ai/ha)	Plant response rating (field poppy; Preemergence, 250 g ai/ha)	Plant response rating, Sandbur (sandbur; 31 g ai/ha)	Plant response rating, Sandbur (sandbur; 62 g ai/ha)	Plant response rating, Sandbur (sandbur; 125 g ai/ha)	Plant response rating, Sandbur (sandbur; 250 g ai/ha)	Plant response rating, Panicum, Fall (panicum, fall; 31 g ai/ha)	Plant response rating, Panicum, Fall (panicum, fall; 62 g ai/ha)	Plant response rating, Panicum, Fall (panicum, fall; 125 g ai/ha)	Plant response rating, Panicum, Fall (panicum, fall; 250 g ai/ha)	Plant response rating, Poinsettia, Wild (wild poinsettia; 31 g ai/ha)	Plant response rating, Poinsettia, Wild (wild poinsettia; 62 g ai/ha)	Plant response rating, Poinsettia, Wild (wild poinsettia; 125 g ai/ha)	Plant response rating, Poinsettia, Wild (wild poinsettia; 250 g ai/ha)	further results
O=C1NC[C@H](c2cccc(C(F)(F)F)c2)[C@H]1C(=O)Nc1cccc(F)c1F [Compound 206]	65	50	45	55	90	90	80	95	65	80	95	98	75	98	98	98	0	10	0	25	
O=C1NCC(c2ccc(C(F)(F)F)cc2)C1C(=O)Nc1cccc(F)c1F (racemic) [Compound 202]	10		0	15	85		85	100	35	70	85	80	0	0	50	85	0	0	25	65	Plant response rating (buckwheat, wild; Postemergence, 31 g ai/ha): 0; Plant response rating (buckwheat, wild; Postemergence, 62 g ai/ha): 0; Plant response rating (buckwheat, wild; Postemergence, 125 g ai/ha): 0; Plant response rating (buckwheat, wild; Postemergence, 250 g ai/ha): 10; Plant response rating (buckwheat, wild; Preemergence, 125 g ai/ha): 10; Plant response rating (field poppy; Postemergence, 31 g ai/ha): 0; Plant response rating (field poppy; Postemergence, 62 g ai/ha): 75; Plant response rating (field poppy; Postemergence, 125 g ai/ha): 100; Plant response rating (field poppy; Postemergence, 250 g ai/ha): 100; Plant response rating (field poppy; Preemergence, 125 g ai/ha): 90
O=C1NCC(c2ccc(Cl)c(Cl)c2)C1C(=O)Nc1ccccc1F (racemic) [Compound 14]									0	0	0	30	0	0		40	0	15	20	25	Plant response rating, Bermudagrass (bermudagrass; 62 g ai/ha, scale 0 to 100): 90; Plant response rating, Bermudagrass (bermudagrass; 125 g ai/ha, scale 0 to 100 (0 no effect, 100 complete control)): 95; Bermudagrass plant response rating (bermudagrass; 31 g ai/ha, scale 0 to 100 (0 no effect, 100 complete control)): 75; Plant response rating, Bermudagrass (bermudagrass; 250 g ai/ha, scale 0 to 100 (0 no effect, 100 complete control)): 95; Plant response rating, Sandbur (sandbur; 16 g ai/ha): 0; Plant response rating, Panicum, Fall (panicum, fall; 16 g ai/ha): 0; Plant response rating, Poinsettia, Wild (wild poinsettia; 16 g ai/ha): 0
O=C1NCC(c2ccc(C(F)(F)F)cc2)C1C(=O)Nc1cccc(F)c1F (stereo not drawn) [Compound 80, N-(2,3-difluorophenyl)-2-oxo-4-[4-(trifluoromethyl)phenyl]-3-pyrrolidinecarboxamide]	0		0	15	100		90	100	30	50	65	70	0	0	0	0	0	0	0	0	Plant response rating (buckwheat, wild; Postemergence, 31 g ai/ha): 0; Plant response rating (buckwheat, wild; Postemergence, 62 g ai/ha): 10; Plant response rating (buckwheat, wild; Postemergence, 125 g ai/ha): 0; Plant response rating (buckwheat, wild; Postemergence, 250 g ai/ha): 0; Plant response rating (buckwheat, wild; Preemergence, 125 g ai/ha): 5; Plant response rating (field poppy; Postemergence, 31 g ai/ha): 25; Plant response rating (field poppy; Postemergence, 62 g ai/ha): 55; Plant response rating (field poppy; Postemergence, 125 g ai/ha): 20; Plant response rating (field poppy; Postemergence, 250 g ai/ha): 50; Plant response rating (field poppy; Preemergence, 125 g ai/ha): 100; Plant response rating, Sandbur (sandbur; 16 g ai/ha): 20; Plant response rating, Panicum, Fall (panicum, fall; 16 g ai/ha): 0; Plant response rating, Poinsettia, Wild (wild poinsettia; 16 g ai/ha): 0
O=C1NCC(c2ccc(OC(F)F)cc2)C1C(=O)Nc1cccc(F)c1F (racemic) [Compound 350]									15	35	65	85	0	0	0	0	0	0	0	30	
O=C1NC[C@H](c2cccc(C(F)(F)F)c2)[C@H]1C(=O)Nc1ccccc1F [Compound 204, (3R,4S)—N-(2-fluorophenyl)-2-oxo-4-[3-(trifluoromethyl)phenyl]-3-pyrrolidinecarboxamide]	25	25	20	25	85	80	75	95	20	50	75	80	0	0	75	75	0	0	20	20	
